Laboratory results from PubChem BioAssay (NCI).
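These data come from cells grown in 96-well plates and exposed to compound for 48 hours at five concentrations. TGI: total growth inhibition.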

Columns and labels:
Experiment in all cases: NCI anticancer screen, dose series, 48 h
786-0 renal = system: 786-0 renal
A498 renal = system: A498 renal
A549 NSCLC = system: A549 NSCLC
ACHN renal = system: ACHN renal
BT-549 breast = system: BT-549 breast
CAKI-1 renal = system: CAKI-1 renal
CCRF-CEM leukemia = system: CCRF-CEM leukemia
COLO 205 colon = system: COLO 205 colon
DLD-1 colon = system: DLD-1 colon
DMS 114 small cell lung = system: DMS 114 small cell lung
DMS 273 small cell lung = system: DMS 273 small cell lung
DU-145 prostate = system: DU-145 prostate
EKVX NSCLC = system: EKVX NSCLC
HCC-2998 colon = system: HCC-2998 colon
HCT-116 colon = system: HCT-116 colon
HCT-15 colon = system: HCT-15 colon
HL-60(TB) leukemia = system: HL-60(TB) leukemia
HOP-62 NSCLC = system: HOP-62 NSCLC
HOP-92 NSCLC = system: HOP-92 NSCLC
HT29 colon = system: HT29 colon
IGROV1 ovarian = system: IGROV1 ovarian
K-562 leukemia = system: K-562 leukemia
KM12 colon = system: KM12 colon
KM20L2 colon = system: KM20L2 colon
LOX IMVI melanoma = system: LOX IMVI melanoma
LXFL 529 NSCLC = system: LXFL 529 NSCLC
M14 melanoma = system: M14 melanoma
M19-MEL melanoma = system: M19-MEL melanoma
MALME-3M melanoma = system: MALME-3M melanoma
MCF7 breast = system: MCF7 breast
MDA-MB-231 breast = system: MDA-MB-231 breast
MDA-MB-435 = system: MDA-MB-435
MDA-N = system: MDA-N
MOLT-4 leukemia = system: MOLT-4 leukemia
NCI-H226 lung = system: NCI-H226 lung
NCI-H23 lung = system: NCI-H23 lung
NCI-H460 lung = system: NCI-H460 lung
NCI-H522 lung = system: NCI-H522 lung
NCI/ADR-RES ovarian = system: NCI/ADR-RES ovarian
OVCAR-3 ovarian = system: OVCAR-3 ovarian
OVCAR-4 ovarian = system: OVCAR-4 ovarian
OVCAR-5 ovarian = system: OVCAR-5 ovarian
OVCAR-8 ovarian = system: OVCAR-8 ovarian
PC-3 prostate = system: PC-3 prostate
RPMI-8226 leukemia = system: RPMI-8226 leukemia
RXF 393 renal = system: RXF 393 renal
SF-268 CNS = system: SF-268 CNS
SF-295 CNS = system: SF-295 CNS
SF-539 CNS = system: SF-539 CNS
SK-MEL-2 melanoma = system: SK-MEL-2 melanoma
SK-MEL-28 melanoma = system: SK-MEL-28 melanoma
SK-MEL-5 melanoma = system: SK-MEL-5 melanoma
SK-OV-3 ovarian = system: SK-OV-3 ovarian
SN12C renal = system: SN12C renal
SNB-19 CNS = system: SNB-19 CNS
SNB-75 CNS = system: SNB-75 CNS
SR leukemia = system: SR leukemia
SW-620 colon = system: SW-620 colon
TK-10 renal = system: TK-10 renal
U251 CNS = system: U251 CNS
UACC-257 melanoma = system: UACC-257 melanoma
UACC-62 melanoma = system: UACC-62 melanoma
UO-31 renal = system: UO-31 renal
HS 578T breast = system: HS 578T breast
T-47D breast = system: T-47D breast

## O=C(N[C@H](CO)[C@H](O)c1ccc([N+](=O)[O-])cc1)C(Cl)Cl
786-0 renal
  TGI: > 100 µM
A498 renal
  TGI: > 100 µM
A549 NSCLC
  TGI: > 100 µM
ACHN renal
  TGI: > 100 µM
BT-549 breast
  TGI: > 100 µM
CAKI-1 renal
  TGI: > 100 µM
CCRF-CEM leukemia
  TGI: > 100 µM
COLO 205 colon
  TGI: > 100 µM
DLD-1 colon
  TGI: > 100 µM
DMS 114 small cell lung
  TGI: > 100 µM
DMS 273 small cell lung
  TGI: > 100 µM
DU-145 prostate
  TGI: > 100 µM
EKVX NSCLC
  TGI: > 100 µM
HCC-2998 colon
  TGI: > 100 µM
HCT-116 colon
  TGI: > 100 µM
HCT-15 colon
  TGI: > 100 µM
HL-60(TB) leukemia
  TGI: > 100 µM
HOP-62 NSCLC
  TGI: > 100 µM
HOP-92 NSCLC
  TGI: > 100 µM
HT29 colon
  TGI: > 100 µM
IGROV1 ovarian
  TGI: > 100 µM
K-562 leukemia
  TGI: > 100 µM
KM12 colon
  TGI: > 100 µM
KM20L2 colon
  TGI: > 100 µM
LOX IMVI melanoma
  TGI: > 100 µM
LXFL 529 NSCLC
  TGI: > 100 µM
M14 melanoma
  TGI: > 100 µM
M19-MEL melanoma
  TGI: > 100 µM
MALME-3M melanoma
  TGI: > 100 µM
MCF7 breast
  TGI: > 100 µM
MDA-MB-231 breast
  TGI: > 100 µM
MDA-MB-435
  TGI: > 100 µM
MDA-N
  TGI: > 100 µM
MOLT-4 leukemia
  TGI: > 100 µM
NCI-H226 lung
  TGI: > 100 µM
NCI-H23 lung
  TGI: > 100 µM
NCI-H460 lung
  TGI: > 100 µM
NCI-H522 lung
  TGI: > 100 µM
NCI/ADR-RES ovarian
  TGI: > 100 µM
OVCAR-3 ovarian
  TGI: > 100 µM
OVCAR-4 ovarian
  TGI: > 100 µM
OVCAR-5 ovarian
  TGI: > 100 µM
OVCAR-8 ovarian
  TGI: > 100 µM
PC-3 prostate
  TGI: > 100 µM
RPMI-8226 leukemia
  TGI: > 100 µM
RXF 393 renal
  TGI: > 100 µM
SF-268 CNS
  TGI: > 100 µM
SF-295 CNS
  TGI: > 100 µM
SF-539 CNS
  TGI: > 100 µM
SK-MEL-2 melanoma
  TGI: > 100 µM
SK-MEL-28 melanoma
  TGI: > 100 µM
SK-MEL-5 melanoma
  TGI: > 100 µM
SK-OV-3 ovarian
  TGI: > 100 µM
SN12C renal
  TGI: > 100 µM
SNB-19 CNS
  TGI: > 100 µM
SNB-75 CNS
  TGI: > 100 µM
SR leukemia
  TGI: > 100 µM
SW-620 colon
  TGI: > 100 µM
TK-10 renal
  TGI: > 100 µM
U251 CNS
  TGI: > 100 µM
UACC-257 melanoma
  TGI: > 100 µM
UACC-62 melanoma
  TGI: > 100 µM
UO-31 renal
  TGI: > 100 µM

## C=C(CC)C(=O)c1ccc(OCC(=O)O)c(Cl)c1Cl
786-0 renal
  TGI: 19.7 µM
A498 renal
  TGI: > 100 µM
A549 NSCLC
  TGI: > 100 µM
ACHN renal
  TGI: > 72.9 µM
BT-549 breast
  TGI: 17.2 µM
CAKI-1 renal
  TGI: 28.1 µM
CCRF-CEM leukemia
  TGI: > 76.3 µM
COLO 205 colon
  TGI: 33.1 µM
DU-145 prostate
  TGI: > 73.2 µM
EKVX NSCLC
  TGI: 38.3 µM
HCC-2998 colon
  TGI: 35.4 µM
HCT-116 colon
  TGI: > 55.1 µM
HCT-15 colon
  TGI: 58.8 µM
HL-60(TB) leukemia
  TGI: > 85 µM
HOP-62 NSCLC
  TGI: > 56 µM
HOP-92 NSCLC
  TGI: 25.2 µM
HS 578T breast
  TGI: 45.9 µM
HT29 colon
  TGI: 36.3 µM
IGROV1 ovarian
  TGI: 47.5 µM
K-562 leukemia
  TGI: > 100 µM
KM12 colon
  TGI: 21.4 µM
LOX IMVI melanoma
  TGI: 29.7 µM
M14 melanoma
  TGI: 45 µM
MALME-3M melanoma
  TGI: 31.7 µM
MCF7 breast
  TGI: 20.8 µM
MDA-MB-231 breast
  TGI: 34.6 µM
MDA-MB-435
  TGI: 32.3 µM
MDA-N
  TGI: > 55.2 µM
MOLT-4 leukemia
  TGI: > 62.2 µM
NCI-H226 lung
  TGI: 45.8 µM
NCI-H23 lung
  TGI: > 56.2 µM
NCI-H460 lung
  TGI: > 69.9 µM
NCI-H522 lung
  TGI: 29.6 µM
NCI/ADR-RES ovarian
  TGI: > 61.9 µM
OVCAR-3 ovarian
  TGI: 30.1 µM
OVCAR-4 ovarian
  TGI: 43.6 µM
OVCAR-5 ovarian
  TGI: > 62.6 µM
OVCAR-8 ovarian
  TGI: 37.2 µM
PC-3 prostate
  TGI: > 81.8 µM
RPMI-8226 leukemia
  TGI: > 100 µM
RXF 393 renal
  TGI: 34.2 µM
SF-268 CNS
  TGI: 33.1 µM
SF-295 CNS
  TGI: > 100 µM
SF-539 CNS
  TGI: 24.4 µM
SK-MEL-2 melanoma
  TGI: 33.2 µM
SK-MEL-28 melanoma
  TGI: 33.6 µM
SK-MEL-5 melanoma
  TGI: > 55.7 µM
SK-OV-3 ovarian
  TGI: > 100 µM
SN12C renal
  TGI: 47.5 µM
SNB-19 CNS
  TGI: 31.3 µM
SNB-75 CNS
  TGI: 50 µM
SR leukemia
  TGI: > 100 µM
SW-620 colon
  TGI: 34.2 µM
T-47D breast
  TGI: 27.6 µM
TK-10 renal
  TGI: 30.2 µM
U251 CNS
  TGI: 29.7 µM
UACC-257 melanoma
  TGI: 55.4 µM
UACC-62 melanoma
  TGI: 30.3 µM
UO-31 renal
  TGI: 34.3 µM
